In patent US20240217992A1, “RETINOIC ACID RECEPTOR AGONIST, PREPARATION METHOD THEREFOR, INTERMEDIATE, PHARMACEUTICAL COMPOSITION AND USE” (JIANGXI KERUI PHARMACEUTICAL CO., LTD., priority 2021, published 2024):

Key:
human hepatocytes [1] = experiment: Hepatocyte stability (metabolic stability in human hepatocytes, LC-MS/MS); conditions: for Normalized area (240 minutes), prototype compound peak (molecular weight shift 0.00): human hepatocytes 1.0 × 10^6 cells/mL, 37° C.
Protocol: (§2) The metabolic stability of the compounds was tested using human hepatocytes.
(§3) • 1. The compounds and hepatocytes were incubated for 240 minutes in the following system.
(§4) The culture was inactivated with 2 volumes of acetonitrile (0.1% FA) and then centrifuged for 15 minutes at 16,000 g. • 3. The supernatant was analyzed by LC-MS/MS for prototype compounds and metabolites.

RARγ = biological target: T1, RARγ (Homo sapiens, UniProt P13631); experiment: Agonist activity on RARγ, dual luciferase reporter gene assay in transfected HEK-293 cells; assay type: cell-based; conditions: for EC50: HEK-293 cells, 24 h incubation, firefly/Renilla luciferase signal; for selectivity on RARγ compared with Trifarotene: RARγ versus RARα, from Table 2; for agonist activity on RARγ compared with Trifarotene: comparison of Table 2 EC50 values
T1 construct: expressed in transfected cells; host or cells: HEK-293 (ATCC #CRL-1573)
T1 sequence (P13631 1-454): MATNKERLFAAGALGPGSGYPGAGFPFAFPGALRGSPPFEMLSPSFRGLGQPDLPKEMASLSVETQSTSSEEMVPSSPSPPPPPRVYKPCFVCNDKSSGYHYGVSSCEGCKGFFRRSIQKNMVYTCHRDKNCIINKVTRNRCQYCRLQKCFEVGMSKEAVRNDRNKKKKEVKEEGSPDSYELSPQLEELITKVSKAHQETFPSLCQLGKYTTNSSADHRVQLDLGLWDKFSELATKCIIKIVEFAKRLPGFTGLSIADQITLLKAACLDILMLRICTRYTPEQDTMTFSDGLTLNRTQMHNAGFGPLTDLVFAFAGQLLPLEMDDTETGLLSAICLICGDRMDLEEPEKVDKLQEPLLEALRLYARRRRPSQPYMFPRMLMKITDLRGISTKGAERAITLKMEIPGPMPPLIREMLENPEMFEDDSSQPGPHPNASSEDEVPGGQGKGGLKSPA
Protocol: (§1) • 1. Day 1: Cell culture. The culture dish was treated with trypsin, and then cells at an appropriate concentration were inoculated into 10 mL of culture medium. Cell culture conditions: 37° C., 5% CO2, humid environment. • 2. Day 3: Transfection with FuGENE transfection reagent. A transfection mixture was prepared using the method of the supplier's instructions, then the tube was shaken vigorously to mix well, and the transfection mixture was left to incubate for 15 minutes at room temperature. The mixture was treated with trypsin to determine the cell density, and the cell suspension was appropriately diluted to the appropriate volume and density. The appropriate transfection reagent mixture was added thereto, and the cell suspension was added to a 96-well plate at 100 μL per well. The 96-well plate was incubated for 24 hours under the cell culture conditions in step 1. • 3. Day 4: Addition of test compound. The compound was formulated into a DMSO stock solution at a concentration of 210× and diluted to make a solution at a concentration of 21× by the addition of 9 times the amount of solvent. 5 μL of the compound solution at a concentration of 21× was added to each well and incubated for 24 hours under the same conditions as step 1. • 4. Day 5: Plate reading. The Dual Luciferase Reporter Gene Assay System was left at room temperature for 30 minutes prior to use, and […] was added to each well of the 96-well plate to detect the intensity of firefly luciferin in an appropriate manner. Afterwards, Stop&Glo reagent was added to detect the intensity of Renilla luciferin. • 5. Data processing. Signal=intensity of firefly luciferin/intensity of Renilla luciferin, multiple of agonist activation=compound signal/baseline signal (the intensity of the baseline signal was obtained from DMSO solution without the compound). pEC50 values were obtained by processing the data with GraphPad Prism, which were further converted to EC50 values.

RARα = biological target: T2, RARα (Homo sapiens, UniProt P10276); experiment: Agonist activity on RARα, dual luciferase reporter gene assay in transfected HEK-293 cells; assay type: cell-based; conditions: 24 h incubation, firefly/Renilla luciferase signal
T2 construct: expressed in transfected cells; host or cells: HEK-293 (ATCC #CRL-1573)
T2 sequence (P10276 1-462): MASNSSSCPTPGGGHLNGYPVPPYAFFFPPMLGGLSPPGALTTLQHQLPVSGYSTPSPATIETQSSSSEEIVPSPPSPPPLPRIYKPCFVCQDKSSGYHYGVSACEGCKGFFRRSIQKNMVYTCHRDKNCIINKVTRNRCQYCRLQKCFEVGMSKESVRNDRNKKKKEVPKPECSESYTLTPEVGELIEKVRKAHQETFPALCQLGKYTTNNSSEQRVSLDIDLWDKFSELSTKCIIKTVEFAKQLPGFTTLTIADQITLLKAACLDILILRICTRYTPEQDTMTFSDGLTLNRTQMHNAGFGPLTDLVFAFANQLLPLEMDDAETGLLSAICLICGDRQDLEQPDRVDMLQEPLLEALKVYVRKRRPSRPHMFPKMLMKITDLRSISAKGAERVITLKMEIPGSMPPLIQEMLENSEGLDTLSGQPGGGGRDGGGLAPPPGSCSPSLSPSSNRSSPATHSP
Protocol: as §1

human hepatocytes [2] = conditions: 10 µM
Protocol: as §2, §3, §4

Row | Structure (SMILES) | prototype compound remaining after 240 minutes of incubation in hepatocytes (human hepatocytes [1]; human hepatocytes) | Normalized area (240 minutes), prototype compound peak (molecular weight shift 0.00) (human hepatocytes [1]; 10 μM) [%] | Normalized area (240 minutes), Peak 3 of Trifarotene (molecular weight shift 16.00) (human hepatocytes [1]; human hepatocytes, 10 μM, metabolite peak m/z 476.24) [%] | Normalized area (240 minutes), Peak 1 of Trifarotene (molecular weight shift 31.99) (human hepatocytes [1]; human hepatocytes, 10 μM, metabolite peak m/z 492.24, retention time 4.18 minutes) [%] | Normalized area (240 minutes), Peak 4 of Trifarotene (molecular weight shift 31.99) (human hepatocytes [1]; human hepatocytes, 10 μM, metabolite peak m/z 492.24, retention time 7.76 minutes) [%] | Normalized area (240 minutes), Peak 2 of Trifarotene (molecular weight shift 192.03) (human hepatocytes [1]; human hepatocytes, 10 μM, metabolite peak m/z 652.27) [%] | EC50 (RARγ) [µM] | selectivity on RARγ compared with Trifarotene (RARγ) | EC50 (RARα) [µM] | agonist activity on RARγ compared with Trifarotene (RARγ) | Normalized area (240 minutes), Peak 4 of compound I-1 (molecular weight shift 0.02) (human hepatocytes [2]) [%]
1 | CC(C)(C)c1cc(-c2cc(-c3ccc(C(=O)O)cc3)ccc2OCCO)ccc1N1CCCC1 [Trifarotene] | 13.57% | 13.57 | 54.29 | 9.35 | 9.10 | 9.98 | – | – | – | – | –
2 | C[Si](C)(C)c1cc(-c2cc(-c3ccc(C(=O)O)cc3)ccc2OCCCCO)ccc1N1CCCC1 [Compound I-3, 4′-(4-hydroxybutoxy)-4″-(pyrrolidin-1-yl)-3″-(trimethylsilyl)-[1,1′:3′,1″-terphenyl]-4-carboxylic acid] | – | – | – | – | – | – | 0.00908 | better than that of Trifarotene | 0.382 | – | –
3 | C[Si]1(C)CC[Si](C)(C)c2cc(-c3cc(-c4ccc(C(=O)O)cc4)ccc3OCCO)ccc21 [Compound I-5, 4′-(2-hydroxyethoxy)-3′-(1,1,4,4-tetramethyl-1,2,3,4-tetrahydrobenzo[b][1,4]disilan-6-yl)-[1,1′-biphenyl]-4-carboxylic acid] | – | – | – | – | – | – | 0.00105 | better than that of Trifarotene | 0.0185 | equal to or stronger than that of Trifarotene | –
4 | C[Si](C)(C)c1cc(-c2cc(-c3ccc(C(=O)O)cc3)ccc2OCCCO)ccc1N1CCCC1 [Compound I-2, 4′-(3-hydroxypropoxy)-4″-(pyrrolidin-1-yl)-3″-(trimethylsilyl)-[1,1′:3′,1″-terphenyl]-4-carboxylic acid] | – | – | – | – | – | – | 0.00077 | better than that of Trifarotene | 0.0155 | equal to or stronger than that of Trifarotene | –
5 | C[Si](C)(C)c1cc(-c2cc(-c3ccc(C(=O)O)cc3)ccc2OCCO)ccc1N1CCCC1 [Compound I-1, 4′-(2-hydroxyethoxy)-4′-(pyrrolidin-1-yl)-3′-(trimethylsilyl)-[1,1′:3′,1′-terphenyl]-4-carboxylic Acid] | less than 1% | 0.12 | – | – | – | – | 0.00088 | better than that of Trifarotene | 0.064 | equal to or stronger than that of Trifarotene | 68.15
